From PubChem BioAssay AID216 (DTP/NCI, 2004)
Where “and” joins values, the source holds several entries; their conditions need not be identical. Equal entries are not always repeated. Inconclusive results and toxic doses are left out. Numbered stars: 1 amine (or outer) side, 2 acyl side, 3 side chain; on linkers, the order of the positions; unused ones are H or OH. Bridge positions count the residues as written; N and C are the ends. Square brackets hold non-standard residues; d marks the D form. Peptide text beside a SMILES is read from it. I, II: the chains in the order shown. Actinocin(9to1) = Cc1c2oc3c(C)ccc(C(=O)[*:1])c3nc-2c(C(=O)[*:2])c(N)c1=O; aThr = C[C@H](O)[C@H](N)C(=O)O; NMeV = CN[C@H](C(=O)O)C(C)C; Sar = CNCC(=O)O

Test system: BDF1 mice, P288 leukemia ip, survival T/C
Test: NCI In Vivo Anticancer Drug Screen. Data for tumor model P288 Lymphocytic Leukemia (intraperitoneal) in B6D2F1 (BDF1) mice
Conditions: higher = longer survival
Experimental: The antitumor activity of compounds was measured in mice bearing transplantable tumors. Survival or tumor size were measured and the results are expressed as the measurement made in the treated group (T) divided by the measurement made in the vehicle treated control group (C). The tumor model used in this assay is P288 Lymphocytic Leukemia (intraperitoneal) in B6D2F1 (BDF1) mice

[1] = endpoint: survival time, mean or median, dose: 0.05 mg/kg/injection, schedule: Q01DX010 (ip), vehicle: other
[2] = endpoint: survival time, mean or median, dose: 6.25 mg/kg/injection, schedule: Q01DX Z (ip), vehicle: carboxymethylcellulose (CMC)
[3] = endpoint: survival time, mean or median, dose: 50.0 mg/kg/injection, schedule: Q01DX010 (ip), vehicle: saline
[4] = endpoint: survival time, mean or median, dose: 100.0 mg/kg/injection, schedule: Q01DX010 (ip), vehicle: saline
[5] = endpoint: survival time, mean or median, dose: 200.0 mg/kg/injection, schedule: Q01DX010 (ip), vehicle: saline
[6] = endpoint: survival time, mean or median, dose: 400.0 mg/kg/injection, schedule: Q01DX010 (ip), vehicle: saline
[7] = endpoint: survival time, mean or median, dose: 10.0 mg/kg/injection, schedule: Q01DX010 (ip), vehicle: saline

Compound: C[C@H](N)C(=O)N[C@@H]1[C@H]2C(=C(O)C[C@@H](O)[C@@H]2O)C(=O)O[C@@H]1C
- T/C (endpoint: survival time, mean or median, dose: 150.0 mg/kg/injection, schedule: Q01DX010 (ip), vehicle: saline): 112 % of control
- T/C (endpoint: survival time, mean or median, dose: 300.0 mg/kg/injection, schedule: Q01DX010 (ip), vehicle: saline): 156 % of control
- T/C (endpoint: survival time, mean or median, dose: 600.0 mg/kg/injection, schedule: Q01DX010 (ip), vehicle: saline): 212 % of control

Compound: Cc1c2oc3c(C)ccc(C(=O)N[C@@H]4C(=O)N[C@H](C(C)C)C(=O)N5CCC[C@H]5C(=O)N(C)CC(=O)N(C)[C@@H](C(C)C)C(=O)O[C@H]4C)c3nc-2c(C(=O)N[C@@H]2C(=O)N[C@H](C(C)C)C(=O)N3CCC[C@H]3C(=O)N(C)CC(=O)N(C)[C@@H](C(C)C)C(=O)O[C@H]2C)c(N)c1=O (I: [aThr][dV]P[Sar][NMeV] / II: [aThr][dV]P[Sar][NMeV]; ester I:1-I:C, II:1-II:C; linker I:N-II:N via Actinocin(9to1))
- T/C [1]: 155 % of control

Compound: S=c1nc[nH]c2nc[nH]c12
- T/C (endpoint: survival time, mean or median, dose: 5.0 mg/kg/injection, schedule: Q01DX010 (ip), vehicle: alkali diluted with saline): 92 % of control
- T/C (endpoint: survival time, mean or median, dose: 10.0 mg/kg/injection, schedule: Q01DX010 (ip), vehicle: alkali diluted with saline): 94 % of control
- T/C (endpoint: survival time, mean or median, dose: 12.5 mg/kg/injection, schedule: Q01DX Z (ip), vehicle: other): 97 % of control
- T/C (endpoint: survival time, mean or median, dose: 20.0 mg/kg/injection, schedule: Q01DX010 (ip), vehicle: alkali diluted with saline): 86 % of control and 100 % of control
- T/C (endpoint: survival time, mean or median, dose: 25.0 mg/kg/injection, schedule: Q01DX Z (ip), vehicle: other): 93 % of control and 100 % of control
- T/C (endpoint: survival time, mean or median, dose: 40.0 mg/kg/injection, schedule: Q01DX010 (ip), vehicle: alkali diluted with saline): 110 % of control and 86 % of control
- T/C (endpoint: survival time, mean or median, dose: 50.0 mg/kg/injection, schedule: Q01DX Z (ip), vehicle: other): 102 % of control and 94 % of control
- T/C (endpoint: survival time, mean or median, dose: 80.0 mg/kg/injection, schedule: Q01DX010 (ip), vehicle: alkali diluted with saline): 117 % of control and 86 % of control
- T/C (endpoint: survival time, mean or median, dose: 100.0 mg/kg/injection, schedule: Q01DX Z (ip), vehicle: other): 105 % of control and 118 % of control
- T/C (endpoint: survival time, mean or median, dose: 200.0 mg/kg/injection, schedule: Q01DX Z (ip), vehicle: other): 106 % of control and 100 % of control
- T/C (endpoint: survival time, mean or median, dose: 400.0 mg/kg/injection, schedule: Q01DX Z (ip), vehicle: other): 89 % of control

Compound: COc1ccc2c(c1OC)C(=O)O[C@@H]2[C@H]1c2c(cc3c(c2OC)OCO3)CCN1C
- T/C (endpoint: survival time, mean or median, dose: 3.9 mg/kg/injection, schedule: Q01DX010 (ip), vehicle: saline): 112 % of control
- T/C (endpoint: survival time, mean or median, dose: 7.8 mg/kg/injection, schedule: Q01DX010 (ip), vehicle: saline): 112 % of control
- T/C (endpoint: survival time, mean or median, dose: 31.3 mg/kg/injection, schedule: Q01DX010 (ip), vehicle: saline): 106 % of control

Compound: CC(=O)Nc1ccc2nc3ccc(NC(C)=O)cc3[n+](-c3ccccc3)c2c1
- T/C (endpoint: survival time, mean or median, dose: 3.1 mg/kg/injection, schedule: Q01DX Z (ip), vehicle: carboxymethylcellulose (CMC)): 115 % of control
- T/C [2]: 113 % of control
- T/C (endpoint: survival time, mean or median, dose: 25.0 mg/kg/injection, schedule: Q01DX010 (ip), vehicle: saline): 112 % of control
- T/C [3]: 112 % of control and 95 % of control
- T/C [4]: 95 % of control
- T/C [5]: 90 % of control
- T/C [6]: 100 % of control
- T/C (endpoint: survival time, mean or median, dose: 400.0 mg/kg/injection, schedule: Q01DX Z (ip), vehicle: carboxymethylcellulose (CMC)): 162 % of control

Compound: OC(CBr)C(O)C(O)C(O)CBr (centres undefined)
- T/C [3]: 114 % of control and 94 % of control
- T/C [4]: 114 % of control and 94 % of control
- T/C [5]: 114 % of control and 94 % of control
- T/C [6]: 105 % of control and 114 % of control

Compound: Nc1nc(N)c2nc(CNc3ccc(C(=O)NC(CCC(=O)O)C(=O)O)cc3)cnc2n1 (centres undefined)
- T/C [1]: 100 % of control
- T/C (endpoint: survival time, mean or median, dose: 0.1 mg/kg/injection, schedule: Q01DX010 (ip), vehicle: other): 116 % of control
- T/C (endpoint: survival time, mean or median, dose: 0.2 mg/kg/injection, schedule: Q01DX010 (ip), vehicle: other): 177 % of control
- T/C (endpoint: survival time, mean or median, dose: 0.4 mg/kg/injection, schedule: Q01DX010 (ip), vehicle: other): 194 % of control

Compound: O=c1cn[nH]c(=O)[nH]1
- T/C (endpoint: survival time, mean or median, dose: 5.0 mg/kg/injection, schedule: Q01DX Z (ip), vehicle: carboxymethylcellulose (CMC)): 113 % of control
- T/C (endpoint: survival time, mean or median, dose: 10.0 mg/kg/injection, schedule: Q01DX Z (ip), vehicle: carboxymethylcellulose (CMC)): 101 % of control
- T/C (endpoint: survival time, mean or median, dose: 20.0 mg/kg/injection, schedule: Q01DX Z (ip), vehicle: carboxymethylcellulose (CMC)): 113 % of control
- T/C (endpoint: survival time, mean or median, dose: 125.0 mg/kg/injection, schedule: Q01DX Z (ip), vehicle: carboxymethylcellulose (CMC)): 104 % of control
- T/C (endpoint: survival time, mean or median, dose: 250.0 mg/kg/injection, schedule: Q01DX Z (ip), vehicle: carboxymethylcellulose (CMC)): 108 % of control and 93 % of control
- T/C (endpoint: survival time, mean or median, dose: 500.0 mg/kg/injection, schedule: Q01DX Z (ip), vehicle: carboxymethylcellulose (CMC)): 106 % of control
- T/C (endpoint: survival time, mean or median, dose: 1000.0 mg/kg/injection, schedule: Q01DX Z (ip), vehicle: carboxymethylcellulose (CMC)): 118 % of control

Compound: CN1c2c(nc(N)[nH]c2=O)NCC1CCNc1ccc(C(=O)NC(CCC(=O)O)C(=O)O)cc1 (centres undefined)
- T/C (endpoint: median survival time, dose: 6.25 mg/kg/injection, schedule: Q01DX009 (ip), vehicle: other): 104 % of control
- T/C (endpoint: median survival time, dose: 12.5 mg/kg/injection, schedule: Q01DX009 (ip), vehicle: other): 104 % of control
- T/C (endpoint: median survival time, dose: 25.0 mg/kg/injection, schedule: Q01DX009 (ip), vehicle: other): 108 % of control
- T/C (endpoint: median survival time, dose: 50.0 mg/kg/injection, schedule: Q01DX009 (ip), vehicle: other): 116 % of control
- T/C (endpoint: median survival time, dose: 400.0 mg/kg/injection, schedule: Q01DX009 (ip), vehicle: other): 162 % of control
- T/C (endpoint: median survival time, dose: 800.0 mg/kg/injection, schedule: Q01DX009 (ip), vehicle: other): 100 % of control

Compound: Oc1cc(CN(CCCl)CCCl)c(O)cc1CN(CCCl)CCCl
- T/C (endpoint: survival time, mean or median, dose: 0.63 mg/kg/injection, schedule: Q01DX010 (ip), vehicle: saline): 100 % of control
- T/C (endpoint: survival time, mean or median, dose: 1.25 mg/kg/injection, schedule: Q01DX010 (ip), vehicle: saline): 111 % of control and 100 % of control
- T/C (endpoint: survival time, mean or median, dose: 1.88 mg/kg/injection, schedule: Q01DX Z (sc), vehicle: steriod suspending solution): 87 % of control
- T/C (endpoint: survival time, mean or median, dose: 2.5 mg/kg/injection, schedule: Q01DX010 (ip), vehicle: saline): 105 % of control
- T/C (endpoint: survival time, mean or median, dose: 3.75 mg/kg/injection, schedule: Q01DX Z (sc), vehicle: steriod suspending solution): 104 % of control
- T/C (endpoint: survival time, mean or median, dose: 5.0 mg/kg/injection, schedule: Q01DX010 (ip), vehicle: saline): 105 % of control and 116 % of control
- T/C [7]: 95 % of control

Compound: CN(C)c1ccc(Nc2c3ccccc3nc3ccccc23)cc1
- T/C [2]: 115 % of control
- T/C (endpoint: survival time, mean or median, dose: 12.5 mg/kg/injection, schedule: Q01DX Z (ip), vehicle: carboxymethylcellulose (CMC)): 105 % of control
- T/C (endpoint: survival time, mean or median, dose: 25.0 mg/kg/injection, schedule: Q01DX Z (ip), vehicle: carboxymethylcellulose (CMC)): 112 % of control
- T/C (endpoint: survival time, mean or median, dose: 36.0 mg/kg/injection, schedule: Q01DX010 (ip), vehicle: saline): 100 % of control
- T/C (endpoint: survival time, mean or median, dose: 50.0 mg/kg/injection, schedule: Q01DX Z (ip), vehicle: carboxymethylcellulose (CMC)): 123 % of control and 98 % of control
- T/C (endpoint: survival time, mean or median, dose: 54.0 mg/kg/injection, schedule: Q01DX010 (ip), vehicle: saline): 111 % of control
- T/C (endpoint: survival time, mean or median, dose: 100.0 mg/kg/injection, schedule: Q01DX Z (ip), vehicle: carboxymethylcellulose (CMC)): 117 % of control
- T/C (endpoint: survival time, mean or median, dose: 120.0 mg/kg/injection, schedule: Q01DX010 (ip), vehicle: saline): 88 % of control
- T/C (endpoint: survival time, mean or median, dose: 200.0 mg/kg/injection, schedule: Q01DX Z (ip), vehicle: carboxymethylcellulose (CMC)): 92 % of control

Compound: CN(N=O)C(=O)NC(C=O)C(O)C(O)C(O)CO (centres undefined)
- T/C (endpoint: survival time, mean or median, dose: 50.0 mg/kg/injection, schedule: Q01DX Z (ip), vehicle: saline): 111 % of control
- T/C (endpoint: survival time, mean or median, dose: 100.0 mg/kg/injection, schedule: Q01DX Z (ip), vehicle: saline): 122 % of control

Compound: COc1cc(-c2ccc(Nc3ccccc3C(=O)O)c(OC)c2)ccc1N
- T/C [7]: 94 % of control
- T/C (endpoint: survival time, mean or median, dose: 20.0 mg/kg/injection, schedule: Q01DX010 (ip), vehicle: saline): 114 % of control and 100 % of control
- T/C (endpoint: survival time, mean or median, dose: 40.0 mg/kg/injection, schedule: Q01DX010 (ip), vehicle: saline): 200 % of control
- T/C (endpoint: survival time, mean or median, dose: 80.0 mg/kg/injection, schedule: Q01DX010 (ip), vehicle: saline): 200 % of control and 228 % of control
